Test system: Plasmodium berghei
Test: Luciferase/luciferin-expressing antifolate-resistant parasites were used to infect a culture of HepG2 cells that were pre-incubated with compounds. Infected hepatocytes emit light due to the luciferase reaction. Assay results are presented as the percent inhibition of light emission compared to control. […]
Type: functional
Details: sporozoite; for IC90: read-out: LUCIFERASE INFECTION ASSAY - IC90

SMILES	IC90 [µM]	other results
Cc1cccc(/C=C(\c2nc3ccccc3[nH]2)S(=O)(=O)c2ccccc2)c1	2.31	IC50 (HEPG2TOX_HILL_SLOPE 1.77, HEPG2TOX_R_SQUARED 0.525, PBLUC_HILL_SLOPE 7.51, 3.20, PBLUC_R_SQUARED 0.576, 0.706, read-out: LUCIFERASE INFECTION ASSAY - IC50): 1.36 µM
CCCCCc1c(C(=O)OCC)[nH]c(C)c1C	> 13.9	IC50 (HEPG2TOX_HILL_SLOPE 1.75, HEPG2TOX_R_SQUARED 0.784, PBLUC_HILL_SLOPE 1.37, PBLUC_R_SQUARED 0.743, read-out: LUCIFERASE INFECTION ASSAY - IC50): 5.49 µM
CC(C)[C@@H](CO)Nc1nccn2c(-c3cccc(OC(F)(F)F)c3)cnc12	6.18	IC50 (HEPG2TOX_HILL_SLOPE 1.77, HEPG2TOX_R_SQUARED 0.938, PBLUC_HILL_SLOPE 1.99, PBLUC_R_SQUARED 0.624, read-out: LUCIFERASE INFECTION ASSAY - IC50): 2.05 µM
COCc1cccc(-c2cc(-c3cccc4ccccc34)cnc2N)c1	1.23	IC50 (HEPG2TOX_HILL_SLOPE 1.78, HEPG2TOX_R_SQUARED 0.808, PBLUC_HILL_SLOPE 16.4, PBLUC_R_SQUARED 0.784, read-out: LUCIFERASE INFECTION ASSAY - IC50): 1.08 µM
FC(F)(F)Oc1cccc(-c2cnc3sc(NCCc4ccncc4)nn23)c1	> 8.14	IC50 (HEPG2TOX_HILL_SLOPE 1.76, HEPG2TOX_R_SQUARED 0.88, read-out: LUCIFERASE INFECTION ASSAY - IC50): > 8.14 µM
COc1ccc(Nc2nc(NCC3CC3)nc3cc(-c4ccccc4)sc23)cc1OC	> 7.63	IC50 (HEPG2TOX_HILL_SLOPE 1.76, HEPG2TOX_R_SQUARED 0.98, PBLUC_HILL_SLOPE 10.6, PBLUC_R_SQUARED 0.159, read-out: LUCIFERASE INFECTION ASSAY - IC50): 6.32 µM
C=CCNC(=O)NCC(=O)c1cc(C)n(-c2ccc(C(C)C)cc2)c1C	3.66	IC50 (HEPG2TOX_HILL_SLOPE 1.75, HEPG2TOX_R_SQUARED 0.807, PBLUC_HILL_SLOPE 19, PBLUC_R_SQUARED 0.54, read-out: LUCIFERASE INFECTION ASSAY - IC50): 3.26 µM
CC1=NN(c2ccccc2)C(=O)/C(=C\NC(=O)c2cccc([N+](=O)[O-])c2)N1	8.07	IC50 (HEPG2TOX_HILL_SLOPE 1.78, HEPG2TOX_R_SQUARED 0.224, PBLUC_HILL_SLOPE 3.78, PBLUC_R_SQUARED 0.384, read-out: LUCIFERASE INFECTION ASSAY - IC50): 4.51 µM
CN1C(=O)N(Cc2ccc3ccccc3c2)C(=O)C12CCN(Cc1cnn(-c3ccc(F)cc3)c1)CC2	2.54	IC50 (HEPG2TOX_HILL_SLOPE 1.74, HEPG2TOX_R_SQUARED 0.906, PBLUC_HILL_SLOPE 10.4, PBLUC_R_SQUARED 0.489, read-out: LUCIFERASE INFECTION ASSAY - IC50): 2.06 µM
Cn1ccc2cc(-c3cnc4cnc(-c5ccc(N)nc5)cn34)ccc21	5.78	IC50 (HEPG2TOX_HILL_SLOPE 1.74, HEPG2TOX_R_SQUARED 0.96, PBLUC_HILL_SLOPE 2.26, PBLUC_R_SQUARED 0.858, read-out: LUCIFERASE INFECTION ASSAY - IC50): 2.18 µM
Cc1nc(C(=O)NNC(=O)c2ccc(C(C)(C)C)cc2)cs1	6.76	IC50 (HEPG2TOX_HILL_SLOPE 1.77, HEPG2TOX_R_SQUARED 0.966, PBLUC_HILL_SLOPE 4.32, PBLUC_R_SQUARED 0.361, read-out: LUCIFERASE INFECTION ASSAY - IC50): 4.06 µM
O=C(OCc1cn2cc(Cl)ccc2n1)c1cc([N+](=O)[O-])ccc1N1CCCC1	1.23	IC50 (HEPG2TOX_HILL_SLOPE 1.77, HEPG2TOX_R_SQUARED 0.925, PBLUC_HILL_SLOPE 9.51, PBLUC_R_SQUARED 0.622, read-out: LUCIFERASE INFECTION ASSAY - IC50): 0.976 µM
Clc1cnc(N/N=C/c2sc(N3CCCCC3)nc2-c2cccs2)c(Cl)c1	9.96	IC50 (HEPG2TOX_HILL_SLOPE 1.78, HEPG2TOX_R_SQUARED 0.499, PBLUC_HILL_SLOPE 5.62, PBLUC_R_SQUARED 0.563, read-out: LUCIFERASE INFECTION ASSAY - IC50): 6.74 µM
COc1ccc(-c2nonc2NC(=O)c2oc3ccc(F)cc3c2C)cc1	1.27	IC50 (HEPG2TOX_HILL_SLOPE 1.77, HEPG2TOX_R_SQUARED 0.888, PBLUC_HILL_SLOPE 11.3, PBLUC_R_SQUARED 0.0148, read-out: LUCIFERASE INFECTION ASSAY - IC50): 1.05 µM
O=C(c1c[nH]c(-c2ccccn2)c1)c1cc(Cl)ccc1O	> 10	IC50 (HEPG2TOX_HILL_SLOPE 1.74, HEPG2TOX_R_SQUARED 0.992, PBLUC_HILL_SLOPE 2.29, PBLUC_R_SQUARED 0.459, read-out: LUCIFERASE INFECTION ASSAY - IC50): 5.42 µM
CCCCc1[nH]nc2ccnc(-c3ccc(CO)cc3)c12	> 10	IC50 (HEPG2TOX_HILL_SLOPE 1.75, HEPG2TOX_R_SQUARED 0.977, read-out: LUCIFERASE INFECTION ASSAY - IC50): > 10 µM

SMILES	IC90 [µM]	other results
CCS(=O)(=O)N1CCC(C(=O)Nc2nnc(-c3ccc(Cl)cc3)o2)(c2ccccc2)CC1	1.21	IC50 (HEPG2TOX_HILL_SLOPE 1.78, 1.25, HEPG2TOX_R_SQUARED 0.428, 0.956, PBLUC_HILL_SLOPE 18.9, PBLUC_R_SQUARED 0.689, read-out: LUCIFERASE INFECTION ASSAY - IC50): 1.07 µM
O=S(=O)(Nc1ccc(C(F)(F)F)cc1Cl)c1cc(C(F)(F)F)ccc1OCC(F)(F)F	3.28	IC50 (HEPG2TOX_HILL_SLOPE 1.76, HEPG2TOX_R_SQUARED 0.989, PBLUC_HILL_SLOPE 2.99, PBLUC_R_SQUARED 0.37, read-out: LUCIFERASE INFECTION ASSAY - IC50): 1.57 µM
CCn1c(-c2ccccc2)c(C(=O)COC(=O)/C=C/c2ccco2)c2ccccc21	> 10	IC50 (HEPG2TOX_HILL_SLOPE 1.75, HEPG2TOX_R_SQUARED 0.877, PBLUC_HILL_SLOPE 15.9, PBLUC_R_SQUARED 0.384, read-out: LUCIFERASE INFECTION ASSAY - IC50): 9.6 µM
COc1ccc(-c2nc(C(=O)N3c4ccccc4CC3C)cs2)cc1OC (configuration not stated)	> 10	IC50 (HEPG2TOX_HILL_SLOPE 1.77, HEPG2TOX_R_SQUARED 0.837, PBLUC_HILL_SLOPE 1.16, PBLUC_R_SQUARED 0.492, read-out: LUCIFERASE INFECTION ASSAY - IC50): 1.9 µM
CC(C)c1noc(CN2CCN(c3ncnc4sc(-c5ccccc5)cc34)CC2)n1	6.72	IC50 (HEPG2TOX_HILL_SLOPE 1.77, HEPG2TOX_R_SQUARED 0.986, PBLUC_HILL_SLOPE 2.11, PBLUC_R_SQUARED 0.835, read-out: LUCIFERASE INFECTION ASSAY - IC50): 2.37 µM
CCN(CC)c1ccc(NC(=O)c2ccc(Br)o2)cc1S(=O)(=O)Nc1ccccc1OC	4.43	IC50 (HEPG2TOX_HILL_SLOPE 1.78, HEPG2TOX_R_SQUARED 0.619, PBLUC_HILL_SLOPE 2.27, PBLUC_R_SQUARED 0.536, read-out: LUCIFERASE INFECTION ASSAY - IC50): 1.68 µM
O=C(/C=C/c1cccnc1)c1ccc(S(=O)(=O)N2CCCC2)cc1	7.23	IC50 (HEPG2TOX_HILL_SLOPE 1.78, HEPG2TOX_R_SQUARED 0.606, PBLUC_HILL_SLOPE 4.03, PBLUC_R_SQUARED 0.736, read-out: LUCIFERASE INFECTION ASSAY - IC50): 4.19 µM
CN(C)c1cccc(-c2ccc3nnc(-c4ccc5c(c4)OCO5)n3c2)c1	5.11	IC50 (HEPG2TOX_HILL_SLOPE 1.77, HEPG2TOX_R_SQUARED 0.976, PBLUC_HILL_SLOPE 2.39, PBLUC_R_SQUARED 0.666, read-out: LUCIFERASE INFECTION ASSAY - IC50): 2.04 µM
Cc1cc(=O)n2ncnc2n1CC(O)COc1ccc(Oc2ccccc2)cc1 (configuration not stated)	8.2	IC50 (HEPG2TOX_HILL_SLOPE 1.76, HEPG2TOX_R_SQUARED 0.892, PBLUC_HILL_SLOPE 2.97, PBLUC_R_SQUARED 0.356, read-out: LUCIFERASE INFECTION ASSAY - IC50): 3.91 µM
CCCCc1[nH]nc2ccnc(-c3cncc(OC)c3)c12	> 10	IC50 (HEPG2TOX_HILL_SLOPE 1.78, HEPG2TOX_R_SQUARED 0.895, read-out: LUCIFERASE INFECTION ASSAY - IC50): > 10 µM
Cn1c(-c2ccccc2)c(C(=O)CSc2nnc(-c3cccs3)[nH]2)c2ccccc21	7.84	IC50 (HEPG2TOX_HILL_SLOPE 1.76, HEPG2TOX_R_SQUARED 0.96, PBLUC_HILL_SLOPE 1.67, PBLUC_R_SQUARED 0.727, read-out: LUCIFERASE INFECTION ASSAY - IC50): 2.1 µM
CC(C)NC(=O)c1csc(C(O)c2ccc(C(C)(C)C)cc2)n1 (configuration not stated)	8.8	IC50 (HEPG2TOX_HILL_SLOPE 1.76, HEPG2TOX_R_SQUARED 0.8, PBLUC_HILL_SLOPE 2.52, PBLUC_R_SQUARED 0.456, read-out: LUCIFERASE INFECTION ASSAY - IC50): 3.68 µM
O=c1nc(-c2ccccn2)[nH]c2scc(-c3ccccc3)c12	2.25	IC50 (HEPG2TOX_HILL_SLOPE 1.76, HEPG2TOX_R_SQUARED 0.7, PBLUC_HILL_SLOPE 112, PBLUC_R_SQUARED 0.058, read-out: LUCIFERASE INFECTION ASSAY - IC50): 2.21 µM
COc1ccc(N/N=C(\C=N\O)C(=O)c2ccccc2)cc1	5.58	IC50 (HEPG2TOX_HILL_SLOPE 1.74, HEPG2TOX_R_SQUARED 0.984, PBLUC_HILL_SLOPE 2.38, PBLUC_R_SQUARED 0.768, read-out: LUCIFERASE INFECTION ASSAY - IC50): 2.22 µM
Cc1ccsc1C(=O)Nc1nc2cc3c(cc2s1)OCCO3	> 10	IC50 (HEPG2TOX_HILL_SLOPE 1.74, HEPG2TOX_R_SQUARED 0.923, PBLUC_HILL_SLOPE 0.323, PBLUC_R_SQUARED 0.422, read-out: LUCIFERASE INFECTION ASSAY - IC50): 0.658 µM

— ChEMBL document CHEMBL4483862, “Open-source discovery of chemical leads for next-generation chemoprotective antimalarials” (2018)
